Experimental data reported in PubChem BioAssay AID2060362 (Molecular Pharmacology Branch, DTP, NCI, 2025).
Activity calls are given as the source filed them. The calls were made as follows: active = viability on the fitted dose curve at most 10% of control; inactive = the rest.

System: 128128-338-R-J1-PDC spheroids, viability % test/control
Test: Anticancer human tumor 128128-338-R-J1-PDC patient-derived melanoma cell line growth inhibition [TAK]
Conditions: spheroids with HUVEC and MSC; for IC50: curve of first compound; for viability, T/C: stronger effect = lower value
In short: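 Spheroids of 60% malignant cells, 25% HUVEC and 15% hMSC were exposed to targeted agents combined with TAK-243 or ipatasertib. Concentrations started at or near clinical Cmax (10 microM if unknown) and descended in half-log steps.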

[1] = second compound 0.3 µM, first compound 0.000316 µM
[2] = second compound 0.3 µM, first compound 0.001 µM
[3] = second compound 0.3 µM, first compound 0.00316 µM
[4] = second compound 0.3 µM, first compound 0.01 µM
[5] = second compound 0.3 µM, first compound 0.0316 µM
[6] = second compound 0.3 µM, first compound 0.1 µM
[7] = second compound 0.949 µM, first compound 0.000316 µM
[8] = second compound 0.949 µM, first compound 0.001 µM
[9] = second compound 0.949 µM, first compound 0.00316 µM
[10] = second compound 0.949 µM, first compound 0.01 µM
[11] = second compound 0.949 µM, first compound 0.0316 µM
[12] = second compound 0.949 µM, first compound 0.1 µM
[13] = second compound 3 µM, first compound 0.000316 µM
[14] = second compound 3 µM, first compound 0.001 µM
[15] = second compound 3 µM, first compound 0.00316 µM
[16] = second compound 3 µM, first compound 0.01 µM
[17] = second compound 3 µM, first compound 0.0316 µM
[18] = second compound 3 µM, first compound 0.1 µM
[19] = second compound 9.49 µM, first compound 0.000316 µM
[20] = second compound 9.49 µM, first compound 0.001 µM
[21] = second compound 9.49 µM, first compound 0.00316 µM
[22] = second compound 9.49 µM, first compound 0.01 µM
[23] = second compound 9.49 µM, first compound 0.0316 µM
[24] = second compound 9.49 µM, first compound 0.1 µM
[25] = second compound 30 µM, first compound 0.000316 µM
[26] = second compound 30 µM, first compound 0.001 µM
[27] = second compound 30 µM, first compound 0.00316 µM
[28] = second compound 30 µM, first compound 0.01 µM
[29] = second compound 30 µM, first compound 0.0316 µM
[30] = second compound 30 µM, first compound 0.1 µM
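For viability, T/C in this document: 100% = DMSO vehicle wells.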

`CC(=O)Nc1cccc(-n2c(=O)n(C3CC3)c(=O)c3c(Nc4ccc(I)cc4F)n(C)c(=O)c(C)c32)c1` + CC(C)NCC(C(=O)N1CCN(c2ncnc3c2C(C)CC3O)CC1)c1ccc(Cl)cc1 gave an IC50 (second compound 0.3 µM) of 1.62 nM, an IC50 (second compound 0.949 µM) of 1.76 nM and an IC50 (second compound 3 µM) of 1.25 nM. For the same compound, the IC50 (second compound 9.49 µM) was 0.348 nM, the IC50 (second compound 30 µM) was < 0.0949 nM and the viability, T/C (second compound 0.3 µM, first compound 94.9 pM) was 98.8%. The viability, T/C (second compound 0.3 µM, first compound 0.0003 µM) was 97.5%, the viability, T/C (second compound 0.3 µM, first compound 0.000949 µM) was 73.5% and the viability, T/C (second compound 0.3 µM, first compound 0.003 µM) was 22.7%. For the same compound, the viability, T/C (second compound 0.3 µM, first compound 0.00949 µM) was 2.28%, the viability, T/C (second compound 0.3 µM, first compound 0.03 µM) was 1.04% and the viability, T/C (second compound 0.949 µM, first compound 94.9 pM) was 100%. It also gave a viability, T/C (second compound 0.949 µM, first compound 0.0003 µM) of 94%, a viability, T/C (second compound 0.949 µM, first compound 0.000949 µM) of 77.8% and a viability, T/C (second compound 0.949 µM, first compound 0.003 µM) of 26.2%. The viability, T/C (second compound 0.949 µM, first compound 0.00949 µM) was 1.76%, the viability, T/C (second compound 0.949 µM, first compound 0.03 µM) was 0.37% and the viability, T/C (second compound 3 µM, first compound 94.9 pM) was 87.3%. The viability, T/C (second compound 3 µM, first compound 0.0003 µM) was 82.8%, the viability, T/C (second compound 3 µM, first compound 0.000949 µM) was 61.9% and the viability, T/C (second compound 3 µM, first compound 0.003 µM) was 12.6%. For the same compound, the viability, T/C (second compound 3 µM, first compound 0.00949 µM) was 0.36%, the viability, T/C (second compound 3 µM, first compound 0.03 µM) was 0.28% and the viability, T/C (second compound 9.49 µM, first compound 94.9 pM) was 63.9%. It also gave a viability, T/C (second compound 9.49 µM, first compound 0.0003 µM) of 55%, a viability, T/C (second compound 9.49 µM, first compound 0.000949 µM) of 16.2% and a viability, T/C (second compound 9.49 µM, first compound 0.003 µM) of 0.75%. It also gave a viability, T/C (second compound 9.49 µM, first compound 0.00949 µM) of 0.11%, a viability, T/C (second compound 9.49 µM, first compound 0.03 µM) of 0.09% and a viability, T/C (second compound 30 µM, first compound 94.9 pM) of 20.5%. For the same compound, the viability, T/C (second compound 30 µM, first compound 0.0003 µM) was 10.1%, the viability, T/C (second compound 30 µM, first compound 0.000949 µM) was 0.5% and the viability, T/C (second compound 30 µM, first compound 0.003 µM) was 0.25%. It also gave a viability, T/C (second compound 30 µM, first compound 0.00949 µM) of 0.1% and a viability, T/C (second compound 30 µM, first compound 0.03 µM) of 0.12%.
With `CC(C)CC(NC(=O)CNC(=O)c1cc(Cl)ccc1Cl)B1OC(=O)CC(CC(=O)O)(C(=O)O)O1` (stereo not given) + CC(C)NCC(C(=O)N1CCN(c2ncnc3c2C(C)CC3O)CC1)c1ccc(Cl)cc1 the IC50 (second compound 0.3 µM) was 8.01 nM, the IC50 (second compound 0.949 µM) was 7.78 nM and the IC50 (second compound 3 µM) was 5.61 nM. For the same compound, the IC50 (second compound 9.49 µM) was 4.79 nM, the IC50 (second compound 30 µM) was < 0.316 nM and the viability, T/C [1] was 97.4%. It also gave a viability, T/C [2] of 100%, a viability, T/C [3] of 102% and a viability, T/C [4] of 38.1%. For the same compound, the viability, T/C [5] was 2.27%, the viability, T/C [6] was 0.15% and the viability, T/C [7] was 98.6%. The viability, T/C [8] was 101%, the viability, T/C [9] was 93% and the viability, T/C [10] was 38%. It also gave a viability, T/C [11] of 1.94%, a viability, T/C [12] of 0.09% and a viability, T/C [13] of 85.3%. For the same compound, the viability, T/C [14] was 94.1%, the viability, T/C [15] was 82.7% and the viability, T/C [16] was 16.9%. For the same compound, the viability, T/C [17] was 1.1%, the viability, T/C [18] was 0.08% and the viability, T/C [19] was 71%. It also gave a viability, T/C [20] of 68.7%, a viability, T/C [21] of 65.1% and a viability, T/C [22] of 23.2%. It also gave a viability, T/C [23] of 0.49%, a viability, T/C [24] of 0.09% and a viability, T/C [25] of 21.9%. The viability, T/C [26] was 22.4%, the viability, T/C [27] was 23.8% and the viability, T/C [28] was 3.46%. The viability, T/C [29] was 0.13% and the viability, T/C [30] was 0.12%.
In the case of `COC1CC2CCC(C)C(O)(O2)C(=O)C(=O)N2CCCCC2C(=O)OC(C(C)CC2CCC(OCCO)C(OC)C2)CC(=O)C(C)C=C(C)C(O)C(OC)C(=O)C(C)CC(C)C=CC=CC=C1C` (stereo not given) + CC(C)NCC(C(=O)N1CCN(c2ncnc3c2C(C)CC3O)CC1)c1ccc(Cl)cc1, the IC50 (second compound 0.3 µM) is reported as > 100 nM, the IC50 (second compound 0.949 µM) is reported as 18.5 nM and the IC50 (second compound 3 µM) is reported as 7.41 nM. The IC50 (second compound 9.49 µM) was 0.462 nM, the IC50 (second compound 30 µM) was < 0.316 nM and the viability, T/C [1] was 110%. The viability, T/C [2] was 99.9%, the viability, T/C [3] was 87.6% and the viability, T/C [4] was 69.1%. It also gave a viability, T/C [5] of 56.6%, a viability, T/C [6] of 54.4% and a viability, T/C [7] of 110%. It also gave a viability, T/C [8] of 97.4%, a viability, T/C [9] of 68.8% and a viability, T/C [10] of 56.4%. The viability, T/C [11] was 48.8%, the viability, T/C [12] was 35.6% and the viability, T/C [13] was 88%. The viability, T/C [14] was 77.4%, the viability, T/C [15] was 62.5% and the outcome [16] was “inactive”. The outcome [17] was “inactive”, the outcome [18] was “inactive” and the viability, T/C [19] was 56.3%. For the same compound, the viability, T/C [20] was 37.2%, the viability, T/C [21] was 20.4% and the viability, T/C [22] was 11.9%. It also gave a viability, T/C [23] of 9.65%, a viability, T/C [24] of 9.71% and a viability, T/C [25] of 9.06%. It also gave a viability, T/C [26] of 7.48%, a viability, T/C [27] of 3.65% and a viability, T/C [28] of 2.31%. For the same compound, the viability, T/C [29] was 2.3% and the viability, T/C [30] was 2.06%.
